# Laboratory results from patent publication US9254120B2, “Method for predicting breast cancer patient response to combination therapy” (Biodesix, Inc., priority 2011, dated 2016).
# Read-outs that look alike come from different tables or passages of the source.
# Key:
# [1] = tested on: early breast cancer patients; conditions: 5 years of treatment, versus tamoxifen, hormone receptor-positive women; cited from earlier work
# [2] = tested on: first line metastatic breast cancer patients
# Excerpt: The total number of patients in this trial was 1258, 1164 pretreatment serum samples were available for analysis. We obtained valid VeriStrat test results for 1046 of these patients, of which 961 were classified as VeriStrat Good, 80 were VeriStrat Poor, and 5 were VeriStrat Indeterminate (Undefined) (patients for whom 3 replicate spectra produced discrepant results); 117 samples were not evaluable due to hemolysis and we could not assign a VeriStrat label to one patient due to data inconsistencies between available samples.
# The classifier assigned a class label to the samples, either “Good” or “Poor” or in a few instances “undefined.” The class labels were assigned using a K-nearest neighbor (KNN) scoring algorithm based on a comparison of the spectra, after preprocessing and calculation of integrated intensity values at selected features in the spectra, with a training set of class-labeled spectra from other cancer patients.
# In our retrospective analysis of the EGF30008 study, we obtained serum samples from the patients participating in the study, subjected them to our VeriStrat test, and the samples were assigned class labels of Good or Poor, depending on the outcome of the KNN algorithm in the classifier.
# A Cox Proportional Hazard Model analysis was carried out including VeriStrat classification, treatment arm, and an interaction term between the two.
# [3] = tested on: advanced breast cancer patients; conditions: letrozole versus anastrozole; cited from earlier work
smiles,measurement,setting,value
CC(C)(C#N)c1cc(Cn2cncn2)cc(C(C)(C)C#N)c1 [anastrozole],Reduction in recurrence rates,[1],26%
CS(=O)(=O)CCNCc1ccc(-c2ccc3ncnc(Nc4ccc(OCc5cccc(F)c5)c(Cl)c4)c3c2)o1 [lapatinib],Patient outcome on addition of lapatinib to letrozole,[2]; VeriStrat Good group,little or no clinical benefit
same,Patient outcome on addition of lapatinib to letrozole,[2]; VeriStrat Poor group,significantly improves patient outcome
N#Cc1ccc(C(c2ccc(C#N)cc2)n2cncn2)cc1 [letrozole],Overall response rate (ORR),[3],significantly superior to anastrozole
same,"HR for PFS, VeriStrat Good vs VeriStrat Poor within the treatment arm (95% CI)",[2]; HER2+ patients,0.29
same,Median PFS,"[2]; HER2+ patients, VeriStrat Good",3.0 months
same,Median PFS,"[2]; HER2+ patients, VeriStrat Poor",2.3 months
same,"HR for PFS, VeriStrat Good vs VeriStrat Poor within the treatment arm (95% CI)","[2]; HER2+ patients, listed as Let only",0.29 (0.09-0.98)
same,Median PFS,"[2]; HER2- patients, VeriStrat Good",13.6 months
same,Median PFS,"[2]; HER2- patients, VeriStrat Poor",3.1 months
same,"HR for PFS, VeriStrat Good vs VeriStrat Poor within the treatment arm (95% CI)","[2]; HER2- patients, listed as Let only",0.37 (0.21-0.64)
same,"HR for PFS, VeriStrat Good vs VeriStrat Poor within the treatment arm (95% CI)","[2]; HER2- patients, listed as letrozole+placebo",0.37
same,Median PFS,"[2]; overall population, VeriStrat Good patients",10.8 months
same,Median PFS,"[2]; overall population, VeriStrat Poor patients",2.8 months
same,"HR for PFS, VeriStrat Good vs VeriStrat Poor within the treatment arm (95% CI)","[2]; overall population, listed as Let only",0.36 (0.23-0.58)
same,"HR for PFS, VeriStrat Good vs VeriStrat Poor within the treatment arm (95% CI)","[2]; overall population, listed as letrozole+placebo",0.36
